Source: ChEMBL document CHEMBL1125000, “Phosphorus-containing inhibitors of HMG-CoA reductase. 1. 4-[(2-arylethyl)hydroxyphosphinyl]-3-hydroxy-butanoic acids: a new class of cell-selective inhibitors of cholesterol biosynthesis” (J Med Chem, 1990)

Tests used:
[1] = biological target: T1, 3-hydroxy-3-methylglutaryl-coenzyme A reductase (Rattus norvegicus, UniProt P51639); test: Inhibition of rat microsomal HMG-CoA reductase activity by 50%; conditions: read-out: I50
T1 sequence (P51639 whole entry): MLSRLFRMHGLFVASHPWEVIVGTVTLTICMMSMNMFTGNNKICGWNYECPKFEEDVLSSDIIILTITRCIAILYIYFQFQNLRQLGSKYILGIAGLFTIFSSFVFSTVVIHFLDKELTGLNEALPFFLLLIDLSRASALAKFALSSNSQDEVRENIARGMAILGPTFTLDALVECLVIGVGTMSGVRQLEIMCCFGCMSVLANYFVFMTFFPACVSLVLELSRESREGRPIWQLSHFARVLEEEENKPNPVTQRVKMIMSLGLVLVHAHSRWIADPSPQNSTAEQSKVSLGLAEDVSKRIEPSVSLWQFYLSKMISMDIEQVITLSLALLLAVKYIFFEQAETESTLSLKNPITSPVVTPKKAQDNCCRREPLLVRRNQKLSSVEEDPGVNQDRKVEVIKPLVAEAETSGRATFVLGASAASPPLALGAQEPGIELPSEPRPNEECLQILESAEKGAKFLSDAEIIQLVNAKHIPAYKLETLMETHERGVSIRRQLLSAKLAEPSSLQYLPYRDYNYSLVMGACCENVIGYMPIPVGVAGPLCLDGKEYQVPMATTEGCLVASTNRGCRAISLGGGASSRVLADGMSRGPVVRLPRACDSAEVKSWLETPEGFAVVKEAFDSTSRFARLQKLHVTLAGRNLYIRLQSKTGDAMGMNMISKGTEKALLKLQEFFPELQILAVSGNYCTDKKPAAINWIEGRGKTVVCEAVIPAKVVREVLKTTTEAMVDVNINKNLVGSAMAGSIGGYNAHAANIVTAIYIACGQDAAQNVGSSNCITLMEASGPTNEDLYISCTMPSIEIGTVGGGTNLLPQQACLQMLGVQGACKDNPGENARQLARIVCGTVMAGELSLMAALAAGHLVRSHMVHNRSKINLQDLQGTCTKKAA

Homo sapiens = species on record: Homo sapiens; test: Compound was tested for 50% inhibition of cholesterol synthesis in human skin fibroblasts.; assay type: functional; conditions: read-out: I50
Rattus norvegicus [2] = test: Inhibitory activity for de novo cholesterol synthesis from [14C]acetate was determined in rat after oral administration (in vivo); assay type: functional
Rattus norvegicus [3] = species on record: Rattus norvegicus; test: Compound was tested for 50% inhibition of cholesterol synthesis in isolated rat hepatocytes.; assay type: functional; conditions: Hepatocyte, read-out: I50
Rattus norvegicus [4] = test: Inhibitory activity for de novo cholesterol synthesis from [14C]acetate was determined in rat after intravenous administration (in vivo); assay type: functional

| Compound | IC50 [1] [nM] | IC50 (Homo sapiens) [nM] | ED50 (Rattus norvegicus [2]) [mg/kg] | IC50 (Rattus norvegicus [3]) [nM] | ED50 (Rattus norvegicus [4]) [mg/kg] |
| --- | --- | --- | --- | --- | --- |
| CC(C)n1c(C#CP(=O)(O)C[C@@H](O)CC(=O)O)c(-c2ccc(F)cc2)c2ccccc21 | 6 | – | – | – | – |
| Cc1cc(C)c(CCCP(=O)(O)C[C@@H](O)CC(=O)O)c(-c2ccc(F)c(C)c2)c1 | 150000 | – | – | – | – |
| Cc1cc(C)c(C#CP(=O)(O)C[C@@H](O)CC(=O)O)c(-c2ccc(F)c(C)c2)c1 | 297 | – | – | – | – |
| O=C(O)C[C@H](O)CP(=O)(O)C#CC1=C(c2ccc(F)cc2)c2ccccc2C12CCCCC2 | 3 | – | – | – | – |
| CC(C)n1c(CCP(=O)(O)C[C@@H](O)CC(=O)O)c(-c2ccc(F)cc2)c2ccccc21 | 24 | – | – | – | – |
| Cc1cc(C)c(/C=C\P(=O)(O)C[C@@H](O)CC(=O)O)c(-c2ccc(F)c(C)c2)c1 | 3000 | – | – | – | – |
| COP(=O)(C[C@@H](O)CC(=O)O)OCc1c(C)cc(C)cc1-c1ccc(F)c(C)c1 (stereo partly specified) | 21600 | – | – | – | – |
| Cc1cc(C)c(OCP(=O)(O)C[C@@H](O)CC(=O)O)c(-c2ccc(F)c(C)c2)c1 | 4500 | – | – | – | – |
| COP(=O)(CCc1c(C)cc(C)cc1-c1ccc(F)c(C)c1)C[C@@H](O)CC(=O)O (stereo partly specified) | 4600 | – | – | – | – |
| CCc1c(C#CP(=O)(O)C[C@@H](O)CC(=O)O)n(-c2ccc(F)cc2)c2ccccc12 | 87.5 | – | – | – | – |
| O=C(O)C[C@H](O)CP(=O)(O)C#CC1=C(c2ccc(F)cc2)c2ccccc2C12CCCC2 | 2.8 | 11000 | 0.38 | 245 | 0.027 |
| Cc1cc(C)c(COP(=O)(O)C[C@@H](O)CC(=O)O)c(-c2ccc(F)c(C)c2)c1 | 162 | 327000 | > 10 | 260 | 0.14 |
| CC[C@H](C)C(=O)O[C@H]1C[C@H](O)C=C2C=C[C@H](C)[C@H](CC[C@@H](O)C[C@@H](O)CC(=O)[O-])[C@H]21.[Na+] [PRAVASTATIN SODIUM] | 26 | 3100 | 0.75 | 100 | 0.053 |
| Cc1cc(C)c(CCP(=O)(O)C[C@@H](O)CC(=O)O)c(-c2ccc(F)c(C)c2)c1 | 15 | 64000 | 6.7 | 85 | 0.05 |
| CC(C)c1c(/C=C/P(=O)(O)C[C@@H](O)CC(=O)O)n(-c2ccc(F)cc2)c2ccccc12 | 1.9 | – | – | – | – |
| O=C(O)C[C@H](O)CP(=O)(O)C#CC1=C(c2ccc(F)cc2)c2ccccc2C12CC2 | 70 | – | – | – | – |
| CC(C)n1c(/C=C/P(=O)(O)C[C@@H](O)CC(=O)O)c(-c2ccc(F)cc2)c2ccccc21 | 26 | – | – | – | – |
| Cc1cc(C)c(/C=C/P(=O)(O)C[C@@H](O)CC(=O)O)c(-c2ccc(F)c(C)c2)c1 | 6.7 | – | – | – | – |
| CC[C@H](C)C(=O)O[C@H]1C[C@@H](C)C=C2C=C[C@H](C)[C@H](CC[C@@H](O)C[C@@H](O)CC(=O)[O-])[C@H]21.[Na+] | – | 19 | 0.4 | 146 | 0.033 |
| Cc1cc(-c2ccc(F)c(C)c2)c(C#CP(=O)(O)C[C@@H](O)CC(=O)O)c(C(C)C)c1 | 8.5 | – | – | – | – |
| CCc1c(CCP(=O)(O)C[C@@H](O)CC(=O)O)n(-c2ccc(F)cc2)c2ccccc12 | 13 | – | – | – | – |
| O=C(O)C[C@H](O)CP(=O)(O)/C=C/C1=C(c2ccc(F)cc2)c2ccccc2C12CCCC2 | 2.1 | – | – | – | – |
| Cc1cc(-c2ccc(F)c(C)c2)c(COP(=O)(O)C[C@@H](O)CC(=O)O)c(C(C)C)c1 | 1.2 | – | – | – | – |
| CC(C)c1c(CCP(=O)(O)C[C@@H](O)CC(=O)O)n(-c2ccc(F)cc2)c2ccccc12 | 120 | – | – | – | – |
| Cc1cc(-c2ccc(F)c(C)c2)c(CCP(=O)(O)C[C@@H](O)CC(=O)O)c(C(C)C)c1 | 3.8 | – | – | – | – |
| CC(C)c1c(C#CP(=O)(O)C[C@@H](O)CC(=O)O)n(-c2ccc(F)cc2)c2ccccc12 | 2.2 | 8900 | 1.1 | 93 | 0.09 |
| COP(=O)(C[C@@H](O)CC(=O)O)NCc1c(C)cc(C)cc1-c1ccc(F)c(C)c1 (stereo partly specified) | 70500 | – | – | – | – |
| Cc1cc(C)c(CP(=O)(O)C[C@@H](O)CC(=O)O)c(-c2ccc(F)c(C)c2)c1 | 89300 | – | – | – | – |
